This is an account of results in patent publication US20150307841A1, “Composition for Promoting Differentiation and Proliferation of Neural Stem Cell and Neural Precursor Cell” (priority 2014, published 2015).

Each structure is given as a SMILES string.

For this assay, the system named is GAD67-, VGluT1-, ChAT-positive neurons and OX42 reactive microglia in the hippocampus. Briefly: Immunohistochemical analysis of GAD67, VGluT1, ChAT, OX42 in hippocampus (Experimental Example 1). The assay is classed as in vivo, rat. The method, then: Immunostaining was carried out using antibodies against VGluT1 (diluted 1:500, Chemicon), ChAT (1:500, Chemicon), GFAP (1:1,000, Chemicon), tyrosine hydroxylase (TH, 1:500, Chemicon) and OX42 (CD11b/c, 1:250, Serotec) as primary antibodies instead of the anti-BrdU antibodies used in (4). The other process was the same as in (4), except that incubation was performed at 37° C. for 30 minutes in 2 N HCl.
In the immunohistochemical analysis, the number of the cells immnunostained against each antibody was counted from 5 or 6 hippocampal coronal sections. For each staining analysis, every fifth cryosections of the hippocampal region of brain tissues (AP: bregma −4.5 to −4.3 mm) were taken for immunostaining. The number of the immnunostained cells was represented as an average of number of cells in the hippocampal region of one brain slice.
The number of the VGluT1- and GAD-positive cells in the brain slice samples 1 week and 4 weeks after the administration of soyasaponin I was presented per microscopic field (×400-VGluT1, ×800-GAD67) and the number of the ChAT-positive cells was presented per each hippocampal region (10-12 confocal laser microscopic fields). 5-11 animals were used per group. Western blotted membranes were analyzed using the multi-gauge, bio-imaging program on LAS-4000 Mini (Fujifilm Life Science, Stamford, Conn., USA). Densitometeric analysis of the expression ratios of VGluT1/β-actin, GAD65/67/β-actin and ChAT/β-actin was normalized to the vehicle group.

The mark [1] stands for this setting: ibotenic acid injected into entorhinal cortex, no soyasaponin I.
Where [2] appears, read: memory-deficient model rats, soyasaponin I at 5, 10, 20 mg/kg oral.

With `N[C@H](C(=O)O)c1cc(=O)[nH]o1` [IBO, Ibotenic acid], under setting [1], the “ChAT-positive cells in the hippocampus relative to Sham” value turned out to be 52.07 ± 7.38%, the “GAD67-positive cells in the hippocampus relative to Sham” value amounted to 43.02 ± 3.72% and the “VGluT1-positive cells in the hippocampus relative to Sham” value was determined as 72.44 ± 3.86%. In addition, under setting [2], the “Number of ChAT-positive cells in the hippocampus” value is recorded as 7.30±1.32 cells and the “Number of GAD67-positive cells” value is on record as 3.81±0.63 cells per hippocampal slice.
